In the supplement of paper PMC10307832:

Assays:
Assay in all cases: relative viability (nuclei count vs DMSO), 5 days (fraction); higher = more cells survive
[1] = compound: COC1=CC=C(C=C1)CN2C=CC3=C2C=C(C=C3)C(=O)NO + CC(=O)c1c(C)c2cnc(Nc3ccc(N4CCNCC4)cn3)nc2n(C2CCCC2)c1=O [Palbociclib] (partner 0.5 µM)
Procedure, shortened: (§1)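 After 5 days of treatment, lung cancer cells in 1536-well plates were fixed and stained in a single step (final 0.05% Triton X-100, 1% formaldehyde, 1 ug/ml Hoechst) and their nuclei counted on 4× images. Treatment had been applied by pin tool the day after seeding as one drug alone or as a fixed anchor-drug dose with five library-drug doses (not always all listed) in √10 steps. Relative viability is the nuclei count of treated wells divided by that of vehicle wells, and values are medians of duplicate plates.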

[2] = compound: COC1=CC=C(C=C1)CN2C=CC3=C2C=C(C=C3)C(=O)NO + Nc1nc2[nH]cc(CCc3ccc(C(=O)N[C@@H](CCC(=O)O)C(=O)O)cc3)c2c(=O)[nH]1 [Pemetrexed] (partner 0.2 µM)
Procedure, shortened: as §1

Veliparib + Alpelisib = compound: C[C@]1(c2nc3c(C(N)=O)cccc3[nH]2)CCCN1 [Veliparib] + Cc1nc(NC(=O)N2CCC[C@H]2C(N)=O)sc1-c1ccnc(C(C)(C)C(F)(F)F)c1 [Alpelisib] (partner 2 µM)
Procedure, shortened: as §1

Veliparib + Decitabine = compound: C[C@]1(c2nc3c(C(N)=O)cccc3[nH]2)CCCN1 [Veliparib] + Nc1ncn([C@H]2C[C@H](O)[C@@H](CO)O2)c(=O)n1 [Decitabine] (partner 2 µM)
Procedure, shortened: as §1

| Cell Line | relative viability ([1]; first compound 0.08 µM) | relative viability ([1]; first compound 0.253 µM) | relative viability ([1]; first compound 0.8 µM) | relative viability ([1]; first compound 2.53 µM) | relative viability ([1]; first compound 8 µM) | relative viability ([2]; first compound 0.08 µM) | relative viability ([2]; first compound 0.253 µM) | relative viability ([2]; first compound 0.8 µM) | relative viability ([2]; first compound 2.53 µM) | relative viability ([2]; first compound 8 µM) | relative viability (Veliparib + Alpelisib; first compound 0.06325 µM) | relative viability (Veliparib + Alpelisib; first compound 0.2 µM) | relative viability (Veliparib + Alpelisib; first compound 0.6325 µM) | relative viability (Veliparib + Alpelisib; first compound 2 µM) | relative viability (Veliparib + Decitabine; first compound 0.02 µM) | relative viability (Veliparib + Decitabine; first compound 0.06325 µM) | relative viability (Veliparib + Decitabine; first compound 0.2 µM) | relative viability (Veliparib + Decitabine; first compound 0.6325 µM) | relative viability (Veliparib + Decitabine; first compound 2 µM) | relative viability (Veliparib + Alpelisib; first compound 0.02 µM) |
| --- | --- | --- | --- | --- | --- | --- | --- | --- | --- | --- | --- | --- | --- | --- | --- | --- | --- | --- | --- | --- |
| NCI-H1355 | 0.382 | 0.471 | 0.425 | 0.413 | 0.411 | 0.538 | 1.06 | 0.978 | 1.06 | 0.998 | 0.739 | 0.846 | 0.692 | 0.816 | 0.388 | 0.29 | 0.371 | 0.328 | 0.325 |  |
| NCI-H2170 | 0.374 | 0.374 | 0.412 | 0.361 | 0.367 | 0.276 | 0.268 | 0.266 | 0.26 | 0.235 | 0.806 | 0.931 | 0.786 | 0.764 | 0.405 | 0.436 | 0.378 | 0.389 | 0.381 | 0.826 |
| NCI-H441 | 0.23 | 0.235 | 0.238 | 0.231 | 0.185 | 0.26 | 0.264 | 0.273 | 0.278 | 0.261 | 0.886 | 0.716 | 0.737 | 0.671 | 0.227 | 0.216 | 0.179 | 0.212 | 0.228 | 0.735 |
| NCI-H661 |  | 0.406 | 0.403 | 0.422 | 0.353 |  | 0.889 | 0.836 | 0.957 | 0.954 | 0.581 | 0.653 | 0.701 | 0.699 | 0.555 | 0.545 | 0.481 | 0.424 | 0.443 | 0.361 |
| NCI-H1666 | 0.642 | 0.661 | 0.694 | 0.679 | 0.625 | 0.761 | 0.914 | 0.84 | 0.918 | 0.87 | 0.709 | 0.857 | 0.829 | 1 | 0.716 | 0.596 | 0.764 | 0.645 | 0.701 | 1.04 |
| NCI-H2347 | 0.422 | 0.445 | 0.472 | 0.441 | 0.428 | 0.399 | 0.44 | 0.405 | 0.473 | 0.453 | 0.946 | 1.01 | 0.957 | 1.02 | 0.625 | 0.556 | 0.616 | 0.582 | 0.587 | 1.01 |
| HCC-366 | 0.339 | 0.372 | 0.38 | 0.367 | 0.389 | 0.119 | 0.153 | 0.172 | 0.153 | 0.175 | 0.234 | 0.365 | 0.384 | 0.411 | 0.332 | 0.225 | 0.195 | 0.189 | 0.182 | 0.452 |
| NCI-H2009 | 0.211 | 0.215 | 0.243 | 0.226 | 0.162 | 1.05 | 1.12 | 1 | 0.983 | 1.1 | 0.994 | 1.17 | 1.15 | 1.23 | 0.344 | 0.37 | 0.366 | 0.329 | 0.361 | 1.19 |
| NCI-H460 | 0.201 | 0.173 | 0.0964 | 0.186 | 0.108 | 0.0617 | 0.058 | 0.0547 | 0.0598 | 0.0652 | 0.342 | 0.539 | 0.347 | 0.441 | 0.407 | 0.255 | 0.203 | 0.212 | 0.132 |  |
| NCI-H2085 | 0.492 | 0.452 | 0.495 | 0.464 | 0.538 | 1.07 | 0.951 | 1.02 | 0.941 | 0.948 | 0.977 | 0.843 | 0.875 | 0.966 | 0.519 | 0.453 | 0.486 | 0.48 | 0.498 | 1.07 |
| HCC-15 | 0.712 | 0.716 | 0.733 | 0.745 | 0.739 | 0.203 | 0.237 | 0.243 | 0.234 | 0.217 | 0.905 | 0.863 | 0.839 | 0.902 | 0.572 | 0.56 | 0.589 | 0.562 | 0.502 | 0.842 |
| NCI-H2405 | 0.476 |  | 0.55 | 0.513 | 0.481 | 0.979 |  | 1.02 | 1.03 | 0.948 | 0.776 | 0.808 | 0.769 | 0.817 | 0.742 |  | 0.653 | 0.663 | 0.693 |  |
| NCI-H2126 | 0.34 | 0.339 | 0.368 | 0.361 | 0.376 | 0.669 | 0.73 | 0.672 | 0.706 | 0.649 | 0.745 | 0.725 | 0.655 | 0.739 | 0.575 | 0.561 | 0.538 | 0.545 | 0.559 | 0.76 |
| NCI-H838 | 0.214 | 0.237 | 0.226 | 0.228 | 0.18 | 0.232 | 0.27 | 0.244 | 0.234 | 0.257 | 0.843 | 1.08 | 0.935 | 1 | 0.409 | 0.453 | 0.408 | 0.32 | 0.426 | 0.971 |
| EPLC-272H |  | 0.325 | 0.314 | 0.311 | 0.319 |  | 0.342 | 0.317 | 0.271 | 0.322 | 0.951 | 1.1 | 0.901 | 0.924 |  | 0.312 | 0.387 | 0.331 | 0.393 |  |
| NCI-H1975 | 0.347 | 0.627 | 0.604 | 0.665 | 0.537 | 0.288 | 0.294 | 0.299 | 0.291 | 0.286 | 0.657 | 0.685 | 0.605 | 0.632 | 0.392 | 0.447 | 0.362 | 0.307 | 0.328 | 0.64 |
| NCI-H3122 | 0.196 | 0.173 | 0.204 | 0.167 | 0.194 | 0.2 | 0.208 | 0.195 | 0.209 | 0.193 | 0.755 | 0.768 | 0.76 | 0.752 | 0.393 | 0.386 | 0.361 | 0.326 | 0.395 | 0.785 |
| PC-14 | 0.533 | 0.599 | 0.567 | 0.509 | 0.535 | 0.107 | 0.132 | 0.14 | 0.135 | 0.152 | 0.862 | 0.796 | 0.886 | 0.893 | 0.155 | 0.141 | 0.135 | 0.12 | 0.109 | 0.923 |
| COR-L 105 | 0.33 | 0.435 | 0.449 | 0.416 | 0.397 | 0.686 | 1.08 | 1.25 | 0.983 | 1.04 | 1.1 | 1.09 | 0.862 | 1.11 | 0.634 | 0.66 | 0.744 | 0.59 | 0.599 | 1.12 |
| LU99A |  | 0.406 | 0.424 | 0.416 | 0.352 |  | 0.181 | 0.169 | 0.174 | 0.194 | 0.459 | 0.544 | 0.509 | 0.569 | 1.01 | 0.875 | 0.932 | 0.825 | 0.866 | 0.504 |
| HCC-78 | 0.437 | 0.473 | 0.45 | 0.496 | 0.452 | 0.901 | 0.872 | 0.938 | 0.918 | 0.66 | 0.406 | 0.387 | 0.36 | 0.322 | 0.637 | 0.589 | 0.603 | 0.517 | 0.491 | 0.455 |
| NCI-H358 |  | 0.125 | 0.115 | 0.14 | 0.191 |  | 0.161 | 0.161 | 0.167 | 0.164 | 0.763 | 0.953 | 0.775 | 1.01 | 0.208 | 0.196 | 0.181 | 0.156 | 0.18 |  |
| NCI-H1792 | 0.616 | 0.726 | 0.626 | 0.634 | 0.637 | 0.907 | 0.952 | 1 | 1.05 | 0.832 | 0.592 | 0.799 | 0.65 | 0.645 | 0.463 | 0.381 | 0.397 | 0.263 | 0.26 | 0.678 |
| NCI-H1651 | 0.476 | 0.519 | 0.525 | 0.51 | 0.531 | 0.561 | 0.523 | 0.587 | 0.512 | 0.56 | 0.83 | 0.922 | 0.828 | 0.856 | 0.549 | 0.43 | 0.348 | 0.358 | 0.32 | 0.889 |
| LOU-NH91 |  | 0.537 | 0.548 | 0.574 | 0.529 |  | 0.417 | 0.346 | 0.372 | 0.391 | 0.72 | 0.76 | 0.706 | 0.748 | 0.847 | 0.785 | 0.792 | 0.782 | 0.837 | 0.698 |
| NCI-H1395 |  | 0.632 | 0.709 | 0.6 | 0.563 |  | 0.788 | 0.913 | 0.91 | 0.726 | 1.37 | 0.873 | 1.09 | 0.74 | 0.704 | 0.626 | 0.686 | 0.606 | 0.652 |  |
| COR-L23 | 0.23 | 0.323 | 0.316 | 0.29 | 0.26 | 0.206 | 0.2 | 0.192 | 0.217 | 0.197 | 0.733 | 0.874 | 0.597 | 0.786 | 0.406 | 0.315 | 0.255 | 0.287 | 0.289 | 0.784 |
